Laboratory results: patent US20220411372A1, “SMALL-MOLECULE INHIBITORS FOR THE B-CATENIN/B-CELL LYMPHOMA 9 PROTEIN-PROTEIN INTERACTION” (H. Lee Moffitt Cancer Center and Research Institute, Inc., priority 2019, published 2022)

Biological target: T1, β-catenin/BCL9 PPI (Homo sapiens, UniProt P35222)
T1 construct: Full-length β-catenin (residues 1-781) were cloned into a pET-28b vector; made in house; host or cells: E. coli BL21 DE3 (β-catenin); BCL9 peptide synthesized by InnoPep Inc
T1 sequence (P35222 1-781): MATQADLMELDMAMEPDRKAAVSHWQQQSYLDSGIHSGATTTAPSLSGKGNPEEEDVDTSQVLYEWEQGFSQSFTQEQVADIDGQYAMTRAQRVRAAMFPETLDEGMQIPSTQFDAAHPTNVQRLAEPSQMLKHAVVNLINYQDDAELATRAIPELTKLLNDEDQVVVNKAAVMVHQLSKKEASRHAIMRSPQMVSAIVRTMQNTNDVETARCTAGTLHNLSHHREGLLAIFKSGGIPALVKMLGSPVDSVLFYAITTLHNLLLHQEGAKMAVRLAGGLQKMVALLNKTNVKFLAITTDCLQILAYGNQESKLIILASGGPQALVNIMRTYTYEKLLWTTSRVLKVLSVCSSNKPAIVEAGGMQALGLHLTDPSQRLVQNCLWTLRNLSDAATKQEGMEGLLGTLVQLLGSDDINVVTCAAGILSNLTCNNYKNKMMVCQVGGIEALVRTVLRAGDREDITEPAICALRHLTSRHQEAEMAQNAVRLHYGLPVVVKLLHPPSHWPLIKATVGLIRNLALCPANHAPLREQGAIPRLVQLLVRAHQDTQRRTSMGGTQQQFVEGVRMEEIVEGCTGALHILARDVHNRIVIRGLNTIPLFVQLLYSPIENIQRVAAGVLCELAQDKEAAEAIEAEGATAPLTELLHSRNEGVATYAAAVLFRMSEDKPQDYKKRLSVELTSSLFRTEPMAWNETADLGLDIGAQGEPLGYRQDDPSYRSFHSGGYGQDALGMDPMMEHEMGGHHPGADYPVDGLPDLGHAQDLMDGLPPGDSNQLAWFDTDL
Assay: AlphaScreen competitive inhibition assay of the β-catenin/BCL9 PPI
Type: binding
Conditions: Table 1, inhibitors 1-14; read-out: Ki
Experimental: AlphaScreen Assays of β-Catenin and BCL9 Interaction. Experiments were performed in white opaque 384-well plates from PerkinElmer (Waltham, Mass.), and the samples were read on a Synergy 2 plate reader (Biotek, Winooski, Vt.) with excitation at 680 nm and emission at 570 nm. The standard AlphaScreen protocol was used with a sensitivity setting of 200. All dilutions were made in 1× assay buffer containing 25 mM Hepes (pH 7.4), 100 mM NaCl, 0.01% Triton X-100 and 0.1% BSA to minimize nonspecific interactions.
For the β-catenin/BCL9 assay, 5 nM biotinylated BCL9 and 40 nM His6-tagged β-catenin were incubated in assay buffer at 4° C. for 30 min. For the β-catenin/E-cadherin assay, 10 nM biotinylated human E-cadherin, and 40 nM His6-tagged human β-catenin were added and incubated in assay buffer at 4° C. for 30 min. Different concentrations of the tested inhibitor were added and incubated in 20 μL assay buffer at 4° C. for another 1 h. All of the assay plates were covered and gently mixed on an orbital shaker. The donor and acceptor beads were then added to the plates to a final concentration of 10 μg/mL in […]. The mixture was incubated for 1 h at 4° C. before detection. The IC50 value was determined by nonlinear least-square analysis of GraphPad Prism 5.0. […] All of the experiments were performed in triplicate and carried out in the presence of 1% DMSO for small-molecule inhibitors. Each compound was assayed at least by two independent experiments. The results were expressed as mean±standard deviation. The inhibitor selectivity for β-catenin/BCL9 over β-catenin/E-canderin interactions was defined as the ratio of the respective Ki value of β-catenin/E-cadherin interactions over that of β-catenin/BCL9 interactions.

Structure (SMILES) | Ki
CC(C)c1ccc(COC(=O)[C@@H]2CCCN(c3cccc(OC(C)(C)C(=O)O)c3)C2)cc1 [Compound 1, (R)-2-(3-(3-(((4-isopropylbenzyl)oxy)carbonyl)piperidin-1-yl)phenoxy)-2-methylpropanoic acid] | > 90 µM
CC(C)c1ccc(COC(=O)[C@H]2CCCN(c3cccc(OC(C)(C)C(=O)O)c3)C2)cc1 [Compound 2, (S)-2-(3-(3-(((4-isopropylbenzyl)oxy)carbonyl)piperidin-1-yl)phenoxy)-2-methylpropanoic acid] | > 90 µM
CC(C)c1ccc(CNC(=O)[C@@H]2CCCN(c3cccc(OC(C)(C)C(=O)O)c3)C2)cc1 [Compound 3, (R)-2-(3-(3-((4-isopropylbenzyl)carbamoyl)piperidin-1-yl)phenoxy)-2-methylpropanoic acid] | ≤ 50 µM
CC(C)c1ccc(CNC(=O)[C@H]2CCCN(c3cccc(OC(C)(C)C(=O)O)c3)C2)cc1 [Compound 4, (S)-2-(3-(3-((4-isopropylbenzyl)carbamoyl)piperidin-1-yl)phenoxy)-2-methylpropanoic acid] | > 90 µM
CC(C)c1ccc(CCNC(=O)[C@@H]2CCCN(c3cccc(OC(C)(C)C(=O)O)c3)C2)cc1 [Compound 13, (R)-2-(3-(3-((4-isopropylphenethyl)carbamoyl)piperidin-1-yl)phenoxy)-2-methylpropanoic acid] | ≤ 50 µM
CC(C)c1ccc(CCNC(=O)[C@H]2CCCN(c3cccc(OC(C)(C)C(=O)O)c3)C2)cc1 [Compound 14, (S)-2-(3-(3-((4-isopropylphenethyl)carbamoyl)piperidin-1-yl)phenoxy)-2-methylpropanoic acid] | ≤ 90 µM

The next lines start with the values.

Ki | Structure (SMILES)
< 50 µM | CC(C)c1ccc(CN(C)C(=O)[C@@H]2CCCN(c3cccc(OC(C)(C)C(=O)O)c3)C2)cc1 [Compound 5, (R)-2-(3-(3-((4-isopropylbenzyl)(methyl)carbamoyl)piperidin-1-yl)phenoxy)-2-methylpropanoic acid]
> 90 µM | CCN(Cc1ccc(C(C)C)cc1)C(=O)[C@@H]1CCCN(c2cccc(OC(C)(C)C(=O)O)c2)C1 [Compound 7, (R)-2-(3-(3-(ethyl(4-isopropylbenzyl)carbamoyl)piperidin-1-yl)phenoxy)-2-methylpropanoic acid]
> 90 µM | CCN(Cc1ccc(C(C)C)cc1)C(=O)[C@H]1CCCN(c2cccc(OC(C)(C)C(=O)O)c2)C1 [Compound 8, (S)-2-(3-(3-(ethyl(4-isopropylbenzyl)carbamoyl)piperidin-1-yl)phenoxy)-2-methylpropanoic acid]
> 90 µM | CC(C)c1ccc(CN(C(=O)[C@@H]2CCCN(c3cccc(OC(C)(C)C(=O)O)c3)C2)C(C)C)cc1 [Compound 9, (R)-2-(3-(3-(isopropyl(4-isopropylbenzyl)carbamoyl)piperidin-1-yl)phenoxy)-2-methylpropanoic acid]
≤ 50 µM | CC(C)c1ccc(CN(C(=O)[C@H]2CCCN(c3cccc(OC(C)(C)C(=O)O)c3)C2)C(C)C)cc1 [Compound 10, (S)-2-(3-(3-(isopropyl(4-isopropylbenzyl)carbamoyl)piperidin-1-yl)phenoxy)-2-methylpropanoic acid]
≤ 50 µM | CC(C)c1ccc(CN(C(=O)[C@@H]2CCCN(c3cccc(OC(C)(C)C(=O)O)c3)C2)C2CC2)cc1 [Compound 11, (R)-2-(3-(3-(cyclopropyl(4-isopropylbenzyl)carbamoyl)piperidin-1-yl)phenoxy)-2-methylpropanoic acid]
> 90 µM | CC(C)c1ccc(CN(C(=O)[C@H]2CCCN(c3cccc(OC(C)(C)C(=O)O)c3)C2)C2CC2)cc1 [Compound 12, (S)-2-(3-(3-(cyclopropyl(4-isopropylbenzyl)carbamoyl)piperidin-1-yl)phenoxy)-2-methylpropanoic acid]

Same assay, conditions: Table 9, inhibitors 93-98, racemic; read-out: Ki

Ki | Structure (SMILES)
≤ 90 µM | CC(C)c1ccc(CNC(=O)C2CCCN(c3cccc(OC(C)(C)C(=O)O)c3)C2)cc1 (racemic) [Compound 93, 2-(3-(3-((4-isopropylbenzyl)carbamoyl)piperidin-1-yl)phenoxy)-2-methylpropanoic acid]
≤ 90 µM | CC(C)c1ccc(CN(C)C(=O)C2CCCN(c3cccc(OC(C)(C)C(=O)O)c3)C2)cc1 (racemic) [Compound 95, 2-(3-(3-((4-isopropylbenzyl)(methyl)carbamoyl)piperidin-1-yl)phenoxy)-2-methylpropanoic acid]
≤ 90 µM | CC(C)c1ccc(CN(C(=O)C2CCCN(c3cccc(OC(C)(C)C(=O)O)c3)C2)C(C)C)cc1 (racemic) [Compound 97, 2-(3-(3-(isopropyl(4-isopropylbenzyl)carbamoyl)piperidin-1-yl)phenoxy)-2-methylpropanoic acid]

Same assay, conditions: Table 10, inhibitors 99-106, racemic; read-out: Ki ± SD

Ki | Structure (SMILES)
> 90 µM | CC(C)(Oc1cccc(N2CCCC(C(=O)N(Cc3ccc(-c4cn[nH]c4)cc3)C3CC3)C2)c1)C(=O)O (racemic) [Compound 99, 2-(3-(3-((4-(1H-pyrazol-4-yl)benzyl)(cyclopropyl)carbamoyl)piperidin-1-yl)phenoxy)-2-methylpropanoic acid]
> 90 µM | Cn1cc(-c2ccc(CN(C(=O)C3CCCN(c4cccc(OC(C)(C)C(=O)O)c4)C3)C3CC3)cc2)cn1 (racemic) [Compound 100, 2-(3-(3-(cyclopropyl(4-(1-methyl-1H-pyrazol-4-yl)benzyl)carbamoyl)piperidin-1-yl)phenoxy)-2-methylpropanoic acid]
≤ 90 µM | CC(C)(Oc1cccc(N2CCCC(C(=O)N(Cc3ccc(-c4ccn[nH]4)cc3)C3CC3)C2)c1)C(=O)O (racemic) [Compound 101, 2-(3-(3-((4-(1H-pyrazol-5-yl)benzyl)(cyclopropyl)carbamoyl)piperidin-1-yl)phenoxy)-2-methylpropanoic acid]
> 90 µM | Cn1nccc1-c1ccc(CN(C(=O)C2CCCN(c3cccc(OC(C)(C)C(=O)O)c3)C2)C2CC2)cc1 (racemic) [Compound 102, 2-(3-(3-(cyclopropyl(4-(1-methyl-1H-pyrazol-5-yl)benzyl)carbamoyl)piperidin-1-yl)phenoxy)-2-methylpropanoic acid]
≤ 30 µM | CC(C)(Oc1cccc(N2CCCC(C(=O)N(Cc3ccc(-c4cccs4)cc3)C3CC3)C2)c1)C(=O)O (racemic) [Compound 103, 2-(3-(3-(cyclopropyl(4-(thiophen-2-yl)benzyl)carbamoyl)piperidin-1-yl)phenoxy)-2-methylpropanoic acid]
≤ 30 µM | CC(C)(Oc1cccc(N2CCCC(C(=O)N(Cc3ccc(-c4ccsc4)cc3)C3CC3)C2)c1)C(=O)O (racemic) [Compound 104, 2-(3-(3-(cyclopropyl(4-(thiophen-3-yl)benzyl)carbamoyl)piperidin-1-yl)phenoxy)-2-methylpropanoic acid]
≤ 90 µM | CC(C)(Oc1cccc(N2CCCC(C(=O)N(Cc3ccc(-c4ccco4)cc3)C3CC3)C2)c1)C(=O)O (racemic) [Compound 105, 2-(3-(3-(cyclopropyl(4-(furan-2-yl)benzyl)carbamoyl)piperidin-1-yl)phenoxy)-2-methylpropanoic acid]
> 90 µM | CC(C)(Oc1cccc(N2CCCC(C(=O)N(Cc3ccc(-c4ccoc4)cc3)C3CC3)C2)c1)C(=O)O (racemic) [Compound 106, 2-(3-(3-(cyclopropyl(4-(furan-3-yl)benzyl)carbamoyl)piperidin-1-yl)phenoxy)-2-methylpropanoic acid]

Same assay, conditions: Table 11, inhibitors 107-108, racemic; read-out: Ki ± SD

Ki | Structure (SMILES)
> 90 µM | COC(=O)C(C)(C)Oc1cccc(N2CCCC(C(=O)N(Cc3ccc(-c4cccs4)cc3)C3CC3)C2)c1 (racemic) [Compound 107, methyl 2-(3-(3-(cyclopropyl(4-(thiophen-2-yl)benzyl)carbamoyl)piperidin-1-yl)phenoxy)-2-methylpropanoate]
